Columns and labels:
TAAR1 [1] = molecular target: T1, TAAR1 (Mus musculus, UniProt Q923Y8); experiment: Radioligand binding on membranes of HEK293 cells stably expressing TAAR1; conditions: radioligand [3H]-rac-2-(1,2,3,4-tetrahydro-1-naphthyl)-2-imidazoline at 60 nM, 4° C., 30 min
T1 construct: expressed in transfected cells; host or cells: HEK293 (ATCC #CRL-1573), stably transfected with pIRESneo2 expression plasmid
Description: (§1) For the construction of expression plasmids the coding sequences of human, rat and mouse TAAR 1 were amplified from genomic DNA essentially as described by Lindemann et al.. The Expand High Fidelity PCR System (Roche Diagnostics) was used with 1.5 mM Mg^2+ and purified PCR products were cloned into pCR2.1-TOPO cloning vector (Invitrogen) following the instructions of the manufacturer. PCR products were subcloned into the pIRESneo2 vector (BD Clontech, Palo Alto, Calif.), and expression vectors were sequence verified before introduction in cell lines.
HEK293 cells (ATCC #CRL-1573) were cultured essentially as described Lindemann et al. (2005). For the generation of stably transfected cell lines HEK293 cells were transfected with the pIRESneo2 expression plasmids containing the TAAR coding sequences (described above) with Lipofectamine 2000 (Invitrogen) according to the instructions of the manufacturer, and 24 hrs post transfection the culture medium was supplemented with 1 mg/ml G418 (Sigma, Buchs, Switzerland). After a culture period of about 10 d clones were isolated, expanded and tested for responsiveness to trace amines (all compounds purchased from Sigma) with the cAMP Biotrak Enzyme immunoassay (EIA) System (Amersham) following the non-acetylation EIA procedure provided by the manufacturer.
Cells at confluence were rinsed with ice-cold phosphate buffered saline without Ca^2+ and Mg^2+ containing 10 mM EDTA and pelleted by centrifugation at 1000 rpm for 5 min at 4° C. The pellet was then washed twice with ice-cold phosphate buffered saline and cell pellet was frozen immediately by immersion in liquid nitrogen and stored until use at −80° C. Cell pellet was then suspended in 20 ml HEPES-NaOH (20 mM), pH 7.4 containing 10 mM EDTA, and homogenized with a Polytron (PT 3000, Kinematica) at 10,000 rpm for 10 s. The homogenate was centrifuged at 48,000×g for 30 min at 4° C. and the pellet resuspended in 20 ml HEPES-NaOH (20 mM), pH 7.4 containing 0.1 mM EDTA (buffer A), and homogenized with a Polytron at 10,000 rpm for 10 s. The homogenate was then centrifuged at 48,000×g for 30 min at 4° C. and the pellet resuspended in 20 ml buffer A, and homogenized with a Polytron at 10,000 rpm for 10 s. Protein concentration was determined by the method of Pierce (Rockford, Ill.). The homogenate was then centrifuged at 48,000×g for 10 min at 4° C., resuspended in HEPES-NaOH (20 mM), pH 7.0 including MgCl2 (10 mM) and […] homogenized with a Polytron at 10,000 rpm for 10 s.
Binding assay was performed at 4° C. in a final volume of 1 ml, and with an incubation time of 30 min. The radioligand [^3H]-rac-2-(1,2,3,4-tetrahydro-1-naphthyl)-2-imidazoline was used at a concentration equal to the calculated Kd value of 60 nM to give a bound at around 0.1% of the total added radioligand concentration, and a specific binding which represented approximately 70-80% of the total binding. Non-specific binding was defined as the amount of [^3H]-rac-2-(1,2,3,4-tetrahydro-1-naphthyl)-2-imidazoline bound in the presence of the appropriate unlabelled ligand (10 μM). Competing ligands were tested in a wide range of concentrations (10 pM-30 μM). […] Each experiment was performed in duplicate. All incubations were terminated by rapid filtration through UniFilter-96 plates (Packard Instrument Company) and glass filter GF/C, pre-soaked for at least 2 h in polyethylenimine 0.3%, and using a Filtermate 96 Cell Harvester (Packard Instrument Company). The tubes and filters were then washed 3 times with 1 ml aliquots of cold buffer B. Filters were not dried and soaked in Ultima gold (45 μl/well, Packard Instrument Company) and bound radioactivity was counted by a TopCount Microplate Scintillation Counter (Packard Instrument Company).

TAAR1 [2] = molecular target: T1, TAAR1; experiment: Radioligand Kd used in the TAAR1 binding assay; conditions: radioligand in the TAAR1 membrane binding assay; species not stated; read-out: calculated Kd value
Description: as §1
Cells at confluence were rinsed with ice-cold phosphate buffered saline without Ca^2+ and Mg^2+ containing 10 mM EDTA and pelleted by centrifugation at 1000 rpm for 5 min at 4° C. The pellet was then washed twice with ice-cold phosphate buffered saline and cell pellet was frozen immediately by immersion in liquid nitrogen and stored until use at −80° C. […] Protein concentration was determined by the method of Pierce (Rockford, Ill.). […]
Binding assay was performed at 4° C. in a final volume of 1 ml, and with an incubation time of 30 min. […] The tubes and filters were then washed 3 times with 1 ml aliquots of cold buffer B. Filters were not dried and soaked in Ultima gold (45 μl/well, Packard Instrument Company) and bound radioactivity was counted by a TopCount Microplate Scintillation Counter (Packard Instrument Company).

T1 sequence (Q923Y8 whole entry): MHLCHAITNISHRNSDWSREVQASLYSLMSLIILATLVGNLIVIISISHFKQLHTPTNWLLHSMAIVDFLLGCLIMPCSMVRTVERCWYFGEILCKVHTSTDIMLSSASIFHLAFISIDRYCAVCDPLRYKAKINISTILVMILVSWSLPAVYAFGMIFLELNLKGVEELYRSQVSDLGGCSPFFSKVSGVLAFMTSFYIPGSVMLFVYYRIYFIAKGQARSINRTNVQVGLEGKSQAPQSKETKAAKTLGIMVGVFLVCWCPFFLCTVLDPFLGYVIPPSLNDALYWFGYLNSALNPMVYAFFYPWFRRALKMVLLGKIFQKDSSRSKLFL

| Structure (SMILES) | Ki (TAAR1 [1]) [µM] | Kd (TAAR1 [2]) [µM] |
| --- | --- | --- |
| CCN(C[C@H]1CCCN1)c1ccc(Cl)cc1 [Example 16, (4-Chloro-phenyl)-ethyl-(R)-1-pyrrolidin-2-ylmethyl-amine] | 0.0056 | – |
| CN(C[C@@H]1CCN1)c1ccc(Cl)cc1 [Example 21, (S)-1-Azetidin-2-ylmethyl-(4-chloro-phenyl)-methyl-amine] | 0.021 | – |
| CCN(C[C@@H]1CCN1)c1cccc(Br)c1 [Example 20, (S)-1-Azetidin-2-ylmethyl-(3-bromo-phenyl)-ethyl-amine] | 0.0047 | – |
| CCN(C[C@@H]1CCCN1)c1ccc(Cl)cc1 [Example 11, (4-Chloro-phenyl)-ethyl-(8)-1-pyrrolidin-2-ylmethyl-amine] | 0.0131 | – |
| CC(C)N(C[C@@H]1CCN1)c1ccc(Cl)cc1 [Example 22, (S)-1-Azetidin-2-ylmethyl-(4-chloro-phenyl)-isopropyl-amine] | 0.041 | – |
| c1ccc2c(c1)CCCC2C1=NCCN1 (racemic) [[^3H]-rac-2-(1,2,3,4-tetrahydro-1-naphthyl)-2-imidazoline] | – | 0.06 |
| CC(C)N(C[C@@H]1CCCN1)c1ccc(Cl)c(Cl)c1 [Example 13, (3,4-Dichloro-phenyl)-isopropyl-(S)-1-pyrrolidin-2-ylmethyl-amine] | 0.005 | – |
| Clc1ccc(N(Cc2ccccc2)C[C@@H]2CCN2)cc1 [Example 23, (S)-1-Azetidin-2-ylmethyl-benzyl-(4-chloro-phenyl)-amine] | 0.0107 | – |
| COc1cc(N(C)C[C@@H]2CCCN2)ccc1Cl [Example 8, (4-Chloro-3-methoxy-phenyl)-methyl-(8)-1-pyrrolidin-2-ylmethyl-amine] | 0.0859 | – |
| CCN(C[C@@H]1CCN1)c1ccccc1 [Example 18, (S)-1-Azetidin-2-ylmethyl-ethyl-phenyl-amine] | 0.0092 | – |
| COc1cc(N(C[C@@H]2CCCN2)C(C)C)ccc1Cl [Example 12, (4-Chloro-3-methoxy-phenyl)-isopropyl-(S)-1-pyrrolidin-2-ylmethyl-amine] | 0.0213 | – |
| CCN(C[C@H]1CCCN1)c1cccc(Oc2ccccc2)c1 [Example 3, Ethyl-(3-phenoxy-phenyl)-(R)-1-pyrrolidin-2-ylmethyl-amine] | 0.0044 | – |
| CCN(C[C@@H]1CCCN1)c1ccc(Cl)c(Cl)c1 [Example 6, (3,4-Dichloro-phenyl)-ethyl-(S)-1-pyrrolidin-2-ylmethyl-amine] | 0.0028 | – |
| CCN(C[C@@H]1CCCN1)c1cccc(Oc2ccccc2)c1 [Example 4, Ethyl-(3-phenoxy-phenyl)-(S)-1-pyrrolidin-2-ylmethyl-amine] | 0.0172 | – |
| CCN(C[C@@H]1CCCN1)c1ccc(Cl)c(OC)c1 [Example 9, (4-Chloro-3-methoxy-phenyl)-ethyl-(8)-1-pyrrolidin-2-ylmethyl-amine] | 0.0092 | – |
| CCN(C[C@@H]1CCN1)c1cccc(OC)c1 [Example 19, (S)-1-Azetidin-2-ylmethyl-ethyl-(3-methoxy-phenyl)-amine] | 0.0137 | – |

Source: patent publication US20130005988A1, “2-AZETIDINEMETHANEAMINES AND 2-PYRROLIDINEMETHANEAMINES AS TAAR-LIGANDS” (priority 2007, published 2013)
